The test system of data set [1] is tubulin. Briefly: Inhibition of tubulin polymerization (assembly assay). Conditions: tubulin at 10 μM, read-out: Tubulin IC50 ± SD. The format is biochemical. As for the experimental part:
(§1) The assembly reaction mixtures contained 0.8 M monosodium glutamate (pH 6.6 with HCl in a 2 M stock solution), 10 μM tubulin, 4% (v/v) DMSO, and varying concentrations of the drug. Following a 15 min preincubation at 30 °C, samples were chilled on ice, GTP to 0.4 mM was added, and turbidity development was followed at 350 nm in a temperature-controlled recording spectrophotometer for 20 min at 30 °C. The extent of reaction was measured. Full experimental details were previously described.[63] For the colchicine binding assay, reaction mixtures contained 1.0 μM tubulin, 5.0 μM [^3H]colchicine, and 5.0 or 1.0 μM inhibitor and were incubated for 10 min at 37 °C. Complete details were described previously.[64]

The subject of data set [2] is tubulin. Briefly: Inhibition of [3H]colchicine binding to tubulin. Conditions: for Inhib. colch. binding 1-5-5 (% ± SD): inhibitor at 1:5:5 μM. The method, then:
as §1

For data set [3], the system named is MCF-7 human breast carcinoma cells. Briefly: Inhibition of the growth of MCF-7 human breast carcinoma cells. The format is cell-based. Particulars: for IC50: Homo sapiens, MCF7, inhibition of cell growth, cells grown for 96 h, read-out: MCF-7 IC50 ± SD. The method, then: The methodology for the evaluation of the growth of human MCF-7 breast carcinoma cells was previously described, except that cells were grown for 96 h for IC50 determinations.[66] U-87 MG and OVCAR-3 proliferation assays were performed plating 10^4 cells/cm^2 in a Multiwell 24. The day after, cells were treated with compound 15, and DMSO was used as a control. Cells were counted 48 h later with a Bürker counting chamber, after dilution in TrypanBlue (#T6146 Sigma-Aldrich).

Data set [4] is described as follows: Metabolic stability in human liver microsomes. The data set is classed as in vitro ADME. Conditions: HLM 0.5 mg/mL, 1 μM, n = 2. As for the experimental part:
(§2) Mouse (Sigma Aldrich, CD-1 male, pooled) and human microsomes (Sigma Aldrich, human, pooled) at 0.5 mg/mL were preincubated with the test compound 15 dissolved in DMSO at 1 μM in phosphate buffer 50 mM, pH 7.4, and 3 mM MgCl2 for 10 min at 37 °C. The reaction was then started by adding the cofactor mixture solution (NADP, glucose-6-phosphate, glucose-6-phosphate dehydrogenase in 2% NaHCO3). Samples were taken at 0, 10, 30, 45, and 60 min and added to acetonitrile to stop the reaction. Samples were then centrifuged, and the supernatant was analyzed by LC–MS/MS to quantify the amount of the compound. A control sample without the cofactor was always added to check the chemical stability of the test compound. […] A fixed concentration of verapamil was added in every sample as an internal standard for LC–MS/MS analyses. The percentage of the area of the test compound remaining at the various incubation times was calculated with respect to the area of the compound at time 0 min.
(§3) The rate constant, k (min^–1), derived for the exponential decay equation (peak area/IS vs time), was used to calculate the rate of Cli.
(§4) Samples were analyzed under the following conditions: UPLC Waters coupled with an API 3200 triple-quadrupole (ABSciex); eluents, (phase A) 95% water, 5% acetonitrile + 0.1% HCOOH, (phase B) 5% water, 95% acetonitrile + 0.1% HCOOH; flow rate, 0.3 mL/min; column, Gemini-Nx 5 μm C18 110A (50 × 2.00 mm) at 35 °C; injection volume, 10 μL. Source conditions ESI positive: T 400 °C, Gas 1 30, Gas 2 35, CUR 30, IS 5500, CAD 5.
(In general: Liver microsomes are vesicles of endoplasmic reticulum, rich in cytochrome P450 enzymes.)

Data set [5] can be described thus: Metabolic stability in mouse liver microsomes. The format is in vitro ADME. Conditions: MLM 0.5 mg/mL, 1 μM, n = 2. As for the experimental part:
as §2, §3, §4

One may read the IC50 as the concentration that inhibits the measured activity by half. Take `COc1cc(C(=O)c2ccn(-c3ccncc3)c2)cc(OC)c1OC` [Compound 4, (1-(Pyridin-4-yl)-1H-pyrrol-3-yl)(3,4,5-trimethoxyphenyl)methanone]: the IC50 is > 20000 nM in the data set on tubulin [1] and 2500 ± 70 nM in data set [3]. Also, the “Inhib. colch. binding 1-5-5 (% ± SD)” value in the data set with tubulin [2] is 1.4 ± 5%.

By melting point is commonly meant the temperature, or range, at which the solid turns liquid. With `COc1cc(C(=O)c2cn(-c3cccnc3)cc2-c2ccccc2)cc(OC)c1OC` [Compound 7, (4-Phenyl-1-(pyridin-3-yl)-1H-pyrrol-3-yl)(3,4,5-trimethoxyphenyl)methanone], the melting point lay within 171 to 173 °C. Moreover, the IC50 with tubulin [1] came to 740 ± 10 nM. Further, the “Inhib. colch. binding 1-5-5 (% ± SD)” value in the data set with tubulin [2] was 52 ± 5%. The IC50 in data set [3] amounted to 50 ± 10 nM.

Consider `COc1cc(C(=O)c2cn(-c3cccnc3)cc2-c2ccco2)cc(OC)c1OC` [Compound 10, (4-(Furan-2-yl)-1-(pyridin-3-yl)-1H-pyrrol-3-yl)(3,4,5-trimethoxyphenyl)methanone], for which the IC50 in the data set on tubulin [1] was determined as 1100 ± 20 nM; in data set [3], 39 ± 2 nM. In the data set with tubulin [2], the “Inhib. colch. binding 1-5-5 (% ± SD)” value is 77 ± 0.1%.

Turning to `COc1cc(C(=O)c2cn(-c3ncccn3)cc2-c2ccccc2)cc(OC)c1OC` [Compound 13, (4-Phenyl-1-(pyrimidin-2-yl)-1H-pyrrol-3-yl)(3,4,5-trimethoxyphenyl)methanone], in the data set with tubulin [1], the IC50 turned out to be 690 ± 100 nM. Besides, in the data set with tubulin [2], the “Inhib. colch. binding 1-5-5 (% ± SD)” value was found to be 88 ± 2%. Besides, in data set [3], the “Inhibition of MCF-7 cell growth (in words)” value (“Inhibition … (in words)” for short) is reported as “strong inhibition” and the IC50 came to 25 ± 8 nM.

Regarding `COc1cc(C(=O)c2cn(-c3ccccn3)cc2-c2ccccc2)cc(OC)c1OC` [Compound 6, (4-Phenyl-1-(pyridin-2-yl)-1H-pyrrol-3-yl)(3,4,5-trimethoxyphenyl)methanone], the melting point is 150 to 152 °C. Moreover, the IC50 in the data set with tubulin [1] was 430 ± 1 nM. Besides, the “Inhib. colch. binding 1-5-5 (% ± SD)” value with tubulin [2] turned out to be 92 ± 0.5%. Further, the IC50 in data set [3] was 18 ± 2 nM.

On to `COc1cc(C(=O)c2cn(-c3cnccn3)cc2-c2ccco2)cc(OC)c1OC` [Compound 12, (4-(Furan-2-yl)-1-(pyrazin-2-yl)-1H-pyrrol-3-yl)(3,4,5-trimethoxyphenyl)methanone], for which, in the data set with tubulin [1], the IC50 is 910 ± 50 nM. Besides, the “Inhib. colch. binding 1-5-5 (% ± SD)” value with tubulin [2] is recorded as 86 ± 2%. Moreover, in data set [3], the “Inhibition … (in words)” value is on record as “strong inhibition” and the IC50 is 29 ± 1 nM.

On to `COc1cc(C(=O)c2ccn(-c3ccccn3)c2)cc(OC)c1OC` [Compound 2, (1-(Pyridin-2-yl)-1H-pyrrol-3-yl)(3,4,5-trimethoxyphenyl)methanone], for which the melting point fell in the range of 120 to 125 °C. In addition, the IC50 in the data set on tubulin [1] was 480 ± 100 nM. Also, the “Inhib. colch. binding 1-5-5 (% ± SD)” value in the data set with tubulin [2] worked out at 83 ± 0.4%. For the same molecule, the IC50 in data set [3] turned out to be 1100 ± 300 nM.

Regarding `CCOc1ccc2ccc(=O)oc2c1` [Compound 7-EC, 7-ethoxycoumarin, reference compound], in data set [4], the “Cli ± SD” value is recorded as 231.3 ± 37.5 μL/min/mg protein and the “t1/2 ± SD” value is recorded as 6.1 ± 1.0 min. In addition, in data set [5], the “Cli ± SD” value was 710.8 ± 1.2 μL/min/mg protein. For the same molecule, the half-life at 1 h, 1 µM in data set [5] (male, CD-1, mouse, liver microsomes, pH 7.4, read-out: t1/2 ± SD) came out at 2 ± 0.1 min.

`COc1cc(C(=O)c2ccn(-c3ncccn3)c2)cc(OC)c1OC` [Compound 5, (1-(Pyrimidin-2-yl)-1H-pyrrol-3-yl)(3,4,5-trimethoxyphenyl)methanone]: the IC50 in the data set on tubulin [1] came out at 490 ± 10 nM; in data set [3] it was 220 nM. The “Inhib. colch. binding 1-5-5 (% ± SD)” value in the data set on tubulin [2] is reported as 82 ± 1%.

For `COc1cc(C(=O)c2cn(-c3cncnc3)cc2-c2ccccc2)cc(OC)c1OC` [Compound 14, (4-Phenyl-1-(pyrimidin-5-yl)-1H-pyrrol-3-yl)(3,4,5-trimethoxyphenyl)methanone], the IC50 in the data set with tubulin [1] is > 20000 nM. Moreover, the “Inhib. colch. binding 1-5-5 (% ± SD)” value with tubulin [2] is 4.7 ± 5%. Also, in data set [3], the “Inhibition … (in words)” value is “poor inhibitors” and the IC50 is > 5000 nM.

For the molecule `COc1cc(C(=O)c2cn(-c3ccncc3)cc2-c2ccco2)cc(OC)c1OC` [Compound 11, (4-(Furan-2-yl)-1-(pyridin-4-yl)-1H-pyrrol-3-yl)(3,4,5-trimethoxyphenyl)methanone], the IC50 in the data set on tubulin [1] stood at 3800 ± 700 nM. In the data set with tubulin [2], the “Inhib. colch. binding 1-5-5 (% ± SD)” value came to 35 ± 3%. Also, in data set [3], the “Inhibition … (in words)” value is “weak inhibitors” and the IC50 was found to be 500 ± 70 nM.

Consider `COc1cc(C(=O)c2cn(-c3ccccn3)cc2-c2ccco2)cc(OC)c1OC` [Compound 9, (4-(Furan-2-yl)-1-(pyridin-2-yl)-1H-pyrrol-3-yl)(3,4,5-trimethoxyphenyl)methanone], for which the IC50 was found to be 740 nM in the data set with tubulin [1] and 18 ± 4 nM in data set [3]. The “Inhibition of [3H]colchicine binding 1:5:1” value in the data set with tubulin [2] (inhibitor at 1:5:1 μM, 1 µM) is on record as 69%. For the same molecule, the “Inhib. colch. binding 1-5-5 (% ± SD)” value in the data set with tubulin [2] is reported as 95 ± 0.9%.

Turning to `COc1cc(C(=O)c2cn(-c3cncnc3)cc2-c2ccco2)cc(OC)c1OC` [Compound 16, (4-(Furan-2-yl)-1-(pyrimidin-5-yl)-1H-pyrrol-3-yl)(3,4,5-trimethoxyphenyl)methanone], the IC50 in the data set with tubulin [1] turned out to be 6700 ± 900 nM. The “Inhib. colch. binding 1-5-5 (% ± SD)” value in the data set on tubulin [2] turned out to be 19 ± 2%. In data set [3], the “Inhibition … (in words)” value is listed as “poor inhibitors” and the IC50 is 580 ± 30 nM.

On to `COc1cc(C(=O)c2cn(-c3ccncc3)cc2-c2ccccc2)cc(OC)c1OC` [Compound 8, (4-Phenyl-1-(pyridin-4-yl)-1H-pyrrol-3-yl)(3,4,5-trimethoxyphenyl)methanone], for which the IC50 with tubulin [1] came out at 6700 ± 100 nM. In addition, the “Inhib. colch. binding 1-5-5 (% ± SD)” value in the data set with tubulin [2] stood at 17 ± 4%. In data set [3], the “Inhibition … (in words)” value was “weak inhibitors” and the IC50 is 2700 ± 500 nM.

In the case of `COc1cc(C(=O)c2ccn(-c3cccnc3)c2)cc(OC)c1OC` [Compound 3, (1-(Pyridin-3-yl)-1H-pyrrol-3-yl)(3,4,5-trimethoxyphenyl)methanone], the IC50 in the data set with tubulin [1] came out at 1200 ± 100 nM; in data set [3] it was 2500 ± 70 nM. In addition, the “Inhib. colch. binding 1-5-5 (% ± SD)” value with tubulin [2] was determined as 38 ± 3%.

The record behind these values is publication PMC9743090, “Induction of Ferroptosis in Glioblastoma and Ovarian Cancers by a New Pyrrole Tubulin Assembly Inhibitor” (Journal of Medicinal Chemistry, 2022).
